Laboratory results reported in patent publication US20250154173A1 (Merck Sharp & Dohme LLC, priority 2023, published 2025).

What follows are compounds tested against T1, GST-RIPK1 (recombinant GST-RIPK1 kinase domain (residues 1-327)) (Homo sapiens, UniProt Q13546) (assay: RIPK1-ADP-Glo Enzymatic Assay). Conditions: ten-point titration, top compound concentration of 100000 nM; 25 nM GST-RIPK1, 300 μM ATP, 3 μM dephosphorylated-MBP; 30 min pre-incubation, 150 min reaction.
T1 construct: recombinant GST-RIPK1 kinase domain (residues 1-327) enzyme produced from baculovirus-transfected Sf21 cells; host or cells: baculovirus-transfected Sf21 insect cells
T1 sequence (Q13546 1-327): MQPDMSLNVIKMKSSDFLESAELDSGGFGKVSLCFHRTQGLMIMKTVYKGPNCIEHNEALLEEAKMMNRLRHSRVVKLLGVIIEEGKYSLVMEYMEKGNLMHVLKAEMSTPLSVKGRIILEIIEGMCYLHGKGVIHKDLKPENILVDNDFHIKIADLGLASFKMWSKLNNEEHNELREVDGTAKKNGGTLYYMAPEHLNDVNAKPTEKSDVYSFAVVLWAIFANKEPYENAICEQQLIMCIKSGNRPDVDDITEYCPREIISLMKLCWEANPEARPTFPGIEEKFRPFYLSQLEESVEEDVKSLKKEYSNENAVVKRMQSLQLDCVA
Assay type: biochemical
Description: RIPK1-ADP-Glo Enzymatic Assay
The enzymatic activity of RIPK1 is measured using an assay derived from ADP-Glo kit (TMPromega), which provides a luminescent-based ADP detection system. Specifically, the ADP generated by RIPK1 kinase is proportionally detected as luminescent signals in a homogenous fashion. In this context, the assessment of the inhibitory effect of small molecules (EC50) is measured by the effectiveness of the compounds to inhibit the ATP to ADP conversion by RIPK1.
In this assay, the potency (EC50) of each compound was determined from a ten-point (1:3 serial dilution; top compound concentration of 100000 nM) titration curve using the following outlined procedure. To each well of a white ProxiPlus 384 well-plate, 30 nL of compound (1% DMSO in final assay volume of 3 μL) was dispensed, followed by the addition of 2 μL of 1× assay buffer (25 mM Hepes 7.3, 20 mM MgCl2, 50 mM NaCl, 1 mM DTT, 0.005% Tween20, and 0.02% BSA) containing 37.5 nM of GST-RIPK1 (recombinant GST-RIPK1 kinase domain (residues 1-327) enzyme produced from baculovirus-transfected Sf21 cells: MW=62 kDa). Plates were placed in an ambient temperature humidified chamber for a 30 minutes pre-incubation with compound. Subsequently, each reaction was initiated by the addition of 1 μL 1× assay buffer containing 900 μM ATP and 3 μM dephosphorylated-MBP substrate. The final reaction in each well of 3 μL consists of 25 nM of GST-RIPK1, 300 μM ATP, and 3 μM dephosphorylated-MBP. Kinase reactions were allowed to proceed for 150 minutes prior to adding ADP-Glo reagents per Promega's outlined kit protocol. Dose-response curves were generated by plotting percent effect (% product conversion; Y-axis) vs. Log 10 compound concentrations (X-axis). EC50 values were calculated using a non-linear regression, four-parameters sigmoidal dose-response model.

EC50 [nM]	Compound
54	4-{[(1r,3R,5′S,7a′R)-3′-oxo-5′- phenyltetrahydro-3′H- spiro[cyclobutane-1,2′-pyrrolo[2,1- b][1,3]oxazol]-3-yl]oxy}pyrimidine- 2-carbonitrile [Example 9.18]
19	O=C1N2[C@@H](CC[C@H]2c2ccccc2)OC12CCC(Oc1cnccn1)CC2 (mixture of isomers) [Example 9.52, (5′S,7a′R)-5′-phenyl-4-[(pyrazin-2-yl)oxy]tetrahydro-3′H-spiro[cyclohexane-1,2′-pyrrolo[2,1-b][1,3]oxazol]-3′-one]
256	O=C1N2[C@@H](CC[C@H]2c2ccccc2)OC12CCC(OCc1ccccc1)CC2 (single isomer, unassigned) [Example 1.1, ((1r or s),4R,5′S,7a′R)-4-(benzyloxy)-5′-phenyltetrahydro-3′H-spiro[cyclohexane-1,2′-pyrrolo[2,1-b]oxazol]-3′-one]
138	O=C1N2[C@@H](CC[C@H]2c2ccccc2)OC12CCC(OCc1ccccc1)CC2 (single isomer, unassigned) [Example 1.2, ((1s or r),4R,5′S,7a′R)-4-(benzyloxy)-5′-phenyltetrahydro-3′H-spiro[cyclohexane-1,2′-pyrrolo[2,1-b]oxazol]-3′-one]
1130	O=C1N2[C@@H](CC[C@H]2c2cncc(F)c2)OC12CCC(OCc1ccccc1)CC2 (single isomer, unassigned) [Example 2.1, ((1r or s),4R,5′S,7a′R)-4-(benzyloxy)-5′-(5-fluoropyridin-3-yl)tetrahydro-3′H-spiro[cyclohexane-1,2′-pyrrolo[2,1-b]oxazol]-3′-one]
595	O=C1N2[C@@H](CC[C@H]2c2cncc(F)c2)OC12CCC(OCc1ccccc1)CC2 (single isomer, unassigned) [Example 2.2, ((1s or r),4R,5′S,7a′R)-4-(benzyloxy)-5′-(5-fluoropyridin-3-yl)tetrahydro-3′H-spiro[cyclohexane-1,2′-pyrrolo[2,1-b]oxazol]-3′-one]
93400	Cn1cc(C2CCC3OC4(CC(Oc5cc(C#N)ncn5)C4)C(=O)N32)cn1 (single isomer, unassigned) [Example 6.1, 6-((((1r or s),3R,5′(S or R),7a′R)-5′-(1-methyl-1H-pyrazol-4-yl)-3′-oxotetrahydro-3′H-spiro[cyclobutane-1,2′-pyrrolo[2,1-b]oxazol]-3-yl)oxy)pyrimidine-4-carbonitrile]
99000	Cn1cc(C2CCC3OC4(CC(Oc5cc(C#N)ncn5)C4)C(=O)N32)cn1 (single isomer, unassigned) [Example 6.2, 6-((((1s or r),3R,5′(S or R),7a′R)-5′-(1-methyl-1H-pyrazol-4-yl)-3′-oxotetrahydro-3′H-spiro[cyclobutane-1,2′-pyrrolo[2,1-b]oxazol]-3-yl)oxy)pyrimidine-4-carbonitrile]
129	Cn1cc(C2CC[C@H]3OC4(CC(Oc5cc(C#N)ncn5)C4)C(=O)N23)cn1 (single isomer, unassigned) [Example 6.3, 6-((((1r or s),3R,5′(R or S),7a′R)-5′-(1-methyl-1H-pyrazol-4-yl)-3′-oxotetrahydro-3′H-spiro[cyclobutane-1,2′-pyrrolo[2,1-b]oxazol]-3-yl)oxy)pyrimidine-4-carbonitrile]
2830	Cn1cc(C2CCC3OC4(CC(Oc5cc(C#N)ncn5)C4)C(=O)N32)cn1 (single isomer, unassigned) [Example 6.4, 6-((((1s or r),3R,5′(R or S),7a′R)-5′-(1-methyl-1H-pyrazol-4-yl)-3′-oxotetrahydro-3′H-spiro[cyclobutane-1,2′-pyrrolo[2,1-b]oxazol]-3-yl)oxy)pyrimidine-4-carbonitrile]
105	O=C1N2[C@@H](CC[C@H]2c2cc(F)cc(F)c2)OC12CC(Oc1ccnc3c(F)cnn13)C2 (single isomer, unassigned) [Example 9.4]
328	O=C1N2[C@@H](CC[C@H]2c2cc(F)cc(F)c2)OC12CC(Oc1ccnc3c(F)cnn13)C2 (single isomer, unassigned) [Example 9.5]
475	Cc1cn(-c2cc(OC3CC4(C3)O[C@@H]3CC[C@@H](c5cc(F)cc(F)c5)N3C4=O)ncn2)cn1 (single isomer, unassigned) [Example 9.9]
64	O=C1N2[C@@H](CC[C@H]2c2cc(F)cc(F)c2)OC12CC(Oc1ccc(F)cn1)C2 (single isomer, unassigned) [Example 9.35]
474	N#Cc1cc(OC2CC3(C2)O[C@@H]2CC[C@@H](c4cccc(F)c4F)N2C3=O)ncn1 (single isomer, unassigned) [Example 9.40, 6-{[(5′S,7a′R)-5′-(2,3-difluorophenyl)-3′-oxotetrahydro-3′H-spiro[cyclobutane-1,2′-pyrrolo[2,1-b][1,3]oxazol]-3-yl]oxy}pyrimidine-4-carbonitrile]
14	N#Cc1cc(OC2CC3(C2)O[C@@H]2CC[C@@H](c4cccc(F)c4F)N2C3=O)ncn1 (single isomer, unassigned) [Example 9.41, 6-{[(5′S,7a′R)-5′-(2,3-difluorophenyl)-3′-oxotetrahydro-3′H-spiro[cyclobutane-1,2′-pyrrolo[2,1-b][1,3]oxazol]-3-yl]oxy}pyrimidine-4-carbonitrile]
390	CC(O[C@H]1C[C@@]2(C1)O[C@@H]1CC[C@@H](c3cc(F)cc(F)c3)N1C2=O)c1ccc(F)cn1 (single isomer, unassigned) [Example 12.1, (1R,3R,5′S,7a′R)-5′-(3,5-difluorophenyl)-3-((R or S)-1-(5-fluoropyridin-2-yl)ethoxy)tetrahydro-3′H-spiro[cyclobutane-1,2′-pyrrolo[2,1-b]oxazol]-3′-one]
155	C[C@@H](OC1CC2(C1)O[C@@H]1CC[C@@H](c3cc(F)cc(F)c3)N1C2=O)c1ccc(F)cn1 (single isomer, unassigned) [Example 12.2, (1R,3R,5′S,7a′R)-5′-(3,5-difluorophenyl)-3-((S or R)-1-(5-fluoropyridin-2-yl)ethoxy)tetrahydro-3′H-spiro[cyclobutene-1,2′-pyrrolo[2,1-b]oxazol]-3′-one]
239	CC(OC1CC2(C1)O[C@@H]1CC[C@@H](c3cc(F)cc(F)c3)N1C2=O)c1ncccc1F (single isomer, unassigned) [Example 12.3, (1R or S,3R or S,5′S,7a′R)-5′-(3,5-difluorophenyl)-3-((R or S)-1-(3-fluoropyridin-2-yl)ethoxy)tetrahydro-3′H-spiro[cyclobutane-1,2′-pyrrolo[2,1-b]oxazol]-3′-one]
329	CC(OC1CC2(C1)O[C@@H]1CC[C@@H](c3cc(F)cc(F)c3)N1C2=O)c1ncccc1F (single isomer, unassigned) [Example 12.4, (1S or R,3S or R,5′S,7a′R)-5′-(3,5-difluorophenyl)-3-((S or R)-1-(3-fluoropyridin-2-yl)ethoxy)tetrahydro-3′H-spiro[cyclobutane-1,2′-pyrrolo[2,1-b]oxazol]-3′-one]
305	CC(OC1CC2(C1)O[C@@H]1CC[C@@H](c3cc(F)cc(F)c3)N1C2=O)c1ncccc1F (single isomer, unassigned) [Example 12.5, (1R or S,3S or r,5′S,7a′R)-5′-(3,5-difluorophenyl)-3-((S or R)-1-(3-fluoropyridin-2-yl)ethoxy)tetrahydro-3′H-spiro[cyclobutane-1,2′-pyrrolo[2,1-b]oxazol]-3′-one]
284	CC(OC1CC2(C1)O[C@@H]1CC[C@@H](c3cc(F)cc(F)c3)N1C2=O)c1ccccc1 (single isomer, unassigned) [Example 15.1, ((1S or R),3R,5′S,7a′R)-5′-(3,5-difluorophenyl)-3-((S or R)-1-phenylethoxy)tetrahydro-3′H-spiro[cyclobutane-1,2′-pyrrolo[2,1-b]oxazol]-3′-one]

Compound	EC50 [nM]
5-{[(1r,3R,5′S,7a′R)-3′-oxo-5′- phenyltetrahydro-3′H- spiro[cyclobutane-1,2′-pyrrolo[2,1- b][1,3]oxazol]-3-yl]oxy}pyridine-3- carbonitrile [Example 9.15]	73
